Experimental findings from PubChem BioAssay AID1259407 (Chemical Carcinogenesis Research Information System (CCRIS), 2018) are described below.

The source made the active and inactive calls. How the calls were made is not given here.

The data set concerns CCRIS mutagenicity, Ames/micronucleus/aberration tests. Put plainly: CCRIS mutagenicity studies.

With `N[C@@H](CCC(=O)N[C@@H](CS)C(=O)NCC(=O)O)C(=O)O`, the mutagenic call is, setting by setting: (Test System: AMES SALMONELLA TYPHIMURIUM, Strain/Indicator: TA92, Metabolic Activation: RAT, KIDNEY, S-9, Method: PREINCUBATION) “active; positive”; (Test System: AMES SALMONELLA TYPHIMURIUM, Strain/Indicator: TA92, Metabolic Activation: RAT, KIDNEY, S-9, Method: STANDARD PLATE) “active; positive”; (Test System: AMES SALMONELLA TYPHIMURIUM, Strain/Indicator: TA97, Metabolic Activation: RAT, KIDNEY, S-9, Method: PREINCUBATION) “active; positive”; (Test System: AMES SALMONELLA TYPHIMURIUM, Strain/Indicator: TA97, Metabolic Activation: RAT, KIDNEY, S-9, Method: STANDARD PLATE) “active; positive”; (Test System: AMES SALMONELLA TYPHIMURIUM, Strain/Indicator: TA100, Metabolic Activation: NONE, Method: PREINCUBATION) “inactive; negative”; (Test System: AMES SALMONELLA TYPHIMURIUM, Strain/Indicator: TA100, Metabolic Activation: RAT, KIDNEY, S-9, Method: PREINCUBATION) “active; positive”. In addition, the mutagenic call was “active; positive” (Test System: AMES SALMONELLA TYPHIMURIUM, Strain/Indicator: TA100, Metabolic Activation: RAT, KIDNEY, S-9, Method: STANDARD PLATE); “inactive; negative” (Test System: AMES SALMONELLA TYPHIMURIUM, Strain/Indicator: TA102, Metabolic Activation: NONE, Method: PREINCUBATION); “inactive; negative” (Test System: AMES SALMONELLA TYPHIMURIUM, Strain/Indicator: TA102, Metabolic Activation: NONE, Method: STANDARD PLATE); “active; positive” (Test System: AMES SALMONELLA TYPHIMURIUM, Strain/Indicator: TA102, Metabolic Activation: RAT, KIDNEY, S-9, Method: PREINCUBATION); “active; positive” (Test System: AMES SALMONELLA TYPHIMURIUM, Strain/Indicator: TA104, Metabolic Activation: RAT, KIDNEY, S-9, Method: PREINCUBATION); “inactive; negative” (Test System: AMES SALMONELLA TYPHIMURIUM, Strain/Indicator: TA104, Metabolic Activation: RAT, KIDNEY, S-9, Method: STANDARD PLATE). For the same molecule, the mutagenic call was “inactive; negative” (Test System: AMES SALMONELLA TYPHIMURIUM, Strain/Indicator: TA1535, Metabolic Activation: RAT, KIDNEY, S-9, Method: PREINCUBATION); “inactive; negative” (Test System: AMES SALMONELLA TYPHIMURIUM, Strain/Indicator: TA1537, Metabolic Activation: RAT, KIDNEY, S-9, Method: PREINCUBATION); “active; equivocal (previous evaluation positive)” (Test System: Mouse lymphoma, Strain/Indicator: L5178Y (tk+/tk-), Metabolic Activation: None, Method: Suspension/plate); “inactive; negative” (Test System: Mouse lymphoma, Strain/Indicator: L5178Y (tk+/tk-), Metabolic Activation: Rat, Liver, S-9, Aroclor 1254, Method: Suspension/plate).
